The values that follow come from patent US20240018140A1, “MODIFIED IMIDAZOPYRIDINES AS GLUCOSYLCERAMIDE SYNTHASE INHIBITORS” (Merck Sharp & Dohme LLC, priority 2020, published 2024).

Chain of glucosylceramide synthase (GCS) (Q16739 whole entry): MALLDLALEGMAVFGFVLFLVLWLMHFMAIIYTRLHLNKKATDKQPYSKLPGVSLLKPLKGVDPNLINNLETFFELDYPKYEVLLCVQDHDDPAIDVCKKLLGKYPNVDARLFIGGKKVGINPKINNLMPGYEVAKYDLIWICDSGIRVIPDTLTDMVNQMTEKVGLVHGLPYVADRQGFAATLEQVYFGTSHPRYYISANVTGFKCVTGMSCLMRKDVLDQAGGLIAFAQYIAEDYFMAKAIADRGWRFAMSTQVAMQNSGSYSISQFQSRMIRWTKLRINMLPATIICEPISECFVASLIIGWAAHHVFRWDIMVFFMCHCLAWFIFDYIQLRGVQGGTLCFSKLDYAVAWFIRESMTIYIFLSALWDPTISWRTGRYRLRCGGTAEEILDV

For this experiment, the target named is glucosylceramide synthase (GCS) (Homo sapiens (Human), UniProt Q16739). Kind of experiment: UDP-Glo glucosylceramide synthase biochemical assay. As to conditions: endogenous GCS in Golgi preparations from human A375 malignant melanoma skin cells; C6 ceramide and UDP-glucose substrates; 20 h incubation; UDP detected by luminescence. An excerpt:
UDP-Glo™ Glucosylceramide Synthase Biochemical Assay
A UDP-Glo™ glucosylceramide synthase biochemical assay was utilized to evaluate the effect of test compounds on the activity of endogenous levels of GCS enzyme contained within Golgi preparations isolated from human A375 malignant melanoma skin cells. The UDP-Glo™ glucosylceramide synthase assay uses UDP-Glucose as a nucleotide-glycosyl donor and ceramide as substrate acceptor molecules. In the reaction, glucosylceramide synthase (GCS) transfers glucose from UDP-Glucose to ceramide. Glucosylceramide and UDP are released as products.
Using Promega's UDP-Glo™ Glycosyltransferase assay kit (Promega Corporation, Madison, WI, USA (Promega)), GCS activity was indirectly measured by detecting the amount of UDP produced. An aliquot of GCS enzyme (1.5 μg crude golgi preparation, total protein) and titrated test compound were aliquoted to each well and incubated for 30 minutes at room temperature. […] An equivalent volume of substrate mixture was then added to each well. Following a 20 h incubation at room temperature to allow for GCS turnover of substrate, an equal volume of UDP detection reagent (Promega) was added to each well and incubated for an additional 75 minutes at room temperature to simultaneously convert the accumulated UDP product into ATP and generate light in a luciferase reaction. The generated light was detected using a luminometer. […] luminescence values (RLUs) were normalized to mean “min” and “max” effects, as determined on each plate. “Min” was defined as the mean of the values of the wells treated with vehicle (DMSO) and which represent 0% inhibition; “max” was defined as the mean of the values of the wells treated with a reference inhibitor and which represent the 100% effect. Values for % Emax and EC50 were determined by best-fitting the normalized data to a curve in Activity Base along a four-parameter logistic nonlinear regression (4PL) model (based on the Levenberg-Marquardt algorithm and defined by the equation below): […]
where: n is 4PMin (bottom of the curve); m is 4PMax (top of the curve); i is IP (inflection point of curve); and p is slope. See Levenberg, K., “A Method for the Solution of Certain Problems in Least Squares”, Quart. Appl. Math. 2, (1944), pp 164-168 and Marquardt, D., “An Algorithm for Least Squares Estimation on Nonlinear Parameters”, SIAM J. Appl. Math. 11, (1963) pp 431-441.
Broadly, the EC50 is the concentration that produces a half-maximal response. A higher EC50 goes with a less potent agent. `O=C(N[C@H]1CC[C@H](O)C[C@H]1F)c1cn2cc(Cl)cc(-c3ccccc3OCC(F)(F)F)c2n1` (mixture of isomers) [Compound 22, 6-chloro-N-((1S,2R,4S and 1R, 2S,4R)-2-fluoro-4-hydroxycyclohexyl)-8-(2-(2,2,2-trifluoroethoxy)phenyl)imidazo[1,2-a]pyridine-2-carboxamide] showed a 50% effective concentration (EC50) of 0.72 nM.
The same measure for `CC1(NC(=O)c2cn3cc(Cl)cc(-c4ccccc4OCC(F)(F)F)c3n2)CCOC1` (racemic) [Compound 14, (R and S)-6-chloro-N-(3-methyltetrahydrofuran-3-yl)-8-(2-(2,2,2-trifluoroethoxy)phenyl)imidazo[1,2-a]pyridine-2-carboxamide]: 0.97 nM; for `O=C(NC1CNCCC1(F)F)c1cn2cccc(-c3ccccc3OCC(F)(F)F)c2n1` (racemic) [Compound 17, (R and S)-N-(4,4-difluoropiperidin-3-yl)-8-(2-(2,2,2-trifluoroethoxy)phenyl)imidazo[1,2-a]pyridine-2-carboxamide]: 1.2 nM; for `CC1(NC(=O)c2cn3cc(Cl)cc(-c4ccccc4OCC(F)(F)F)c3n2)CCCOC1` (racemic) [Compound 35, (R and S)-6-chloro-N-(3-methyltetrahydro-2H-pyran-3-yl)-8-(2-(2,2,2-trifluoroethoxy)phenyl)imidazo[1,2-a]pyridine-2-carboxamide]: 3.3 nM.
For the compound `O=C(NC(c1cccnc1)C(F)(F)F)c1cn2cccc(-c3ccccc3OCC(F)(F)F)c2n1` (racemic) [Compound 38, (R and S)-N-(2,2,2-trifluoro-1-(pyridin-3-yl)ethyl)-8-(2-(2,2,2-trifluoroethoxy)phenyl)imidazo[1,2-a]pyridine-2-carboxamide], the concentration for a half-maximal effect (EC50) came to 5.5 nM.
The same measure for `O=C(c1cn2cccc(-c3ccccc3OCC(F)(F)F)c2n1)N1CCOC2(CCOC2)C1` (racemic) [Compound 50, (R and S)-(2,6-dioxa-9-azaspiro[4.5]decan-9-yl)(8-(2-(2,2,2-trifluoroethoxy)phenyl)imidazo[1,2-a]pyridin-2-yl)methanone]: 21 nM.
The result for `O=C(N[C@@H]1CNCC[C@H]1F)c1cn2cccc(-c3ccccc3OCC(F)(F)F)c2n1` (relative stereo) [Compound 16, N-(trans-4-fluoropiperidin-3-yl)-8-(2-(2,2,2-trifluoroethoxy)phenyl)imidazo[1,2-a]pyridine-2-carboxamide] reads 0.83 nM.
For `O=C(N[C@H]1CC[C@H](O)C1)c1cn2cccc(-c3ccccc3OCC(F)(F)F)c2n1` (relative stereo) [Compound 19, N-(trans-3-hydroxycyclopentyl)-8-(2-(2,2,2-trifluoroethoxy)phenyl)imidazo[1,2-a]pyridine-2-carboxamide], the concentration giving a half-maximal response (EC50) was found to be 23 nM.
The same measure for `O=C(N[C@@H]1CCC[C@H](CO)C1)c1cn2cccc(-c3ccccc3OCC(F)(F)F)c2n1` (relative stereo) [Compound 31, N-(cis-3-(hydroxymethyl)cyclohexyl)-8-(2-(2,2,2-trifluoroethoxy)phenyl)imidazo[1,2-a]pyridine-2-carboxamide]: 0.23 nM; for `O=C(NC1CCCOC1)c1cn2cccc(-c3ccccc3OCC(F)(F)F)c2n1` (single isomer, unassigned) [Compound 2, (R or S)-N-(tetrahydro-2H-pyran-3-yl)-8-(2-(2,2,2-trifluoroethoxy)phenyl)imidazo[1,2-a]pyridine-2-carboxamide]: 6.1 nM.
The same measure for `CC(CO)(NC(=O)c1cn2cccc(-c3ccccc3OCC(F)(F)F)c2n1)C(F)(F)F` (single isomer, unassigned) [Compound 9, (R or S)-N-(1,1,1-trifluoro-3-hydroxy-2-methylpropan-2-yl)-8-(2-(2,2,2-trifluoroethoxy)phenyl)imidazo[1,2-a]pyridine-2-carboxamide]: 2.3 nM; for `CC(CO)(NC(=O)c1cn2cccc(-c3ccccc3OCC(F)(F)F)c2n1)C(F)(F)F` (single isomer, unassigned) [Compound 10, (R or S)-N-(1,1,1-trifluoro-3-hydroxy-2-methylpropan-2-yl)-8-(2-(2,2,2-trifluoroethoxy)phenyl)imidazo[1,2-a]pyridine-2-carboxamide]: 7.2 nM.
In the case of `CC(O)c1cn2cc(C(F)(F)F)cc(-c3ccccc3OCC(F)(F)F)c2n1` (single isomer, unassigned) [Compound 63, (R or S) 1-(8-(2-(2,2,2-trifluoroethoxy)phenyl)-6-(trifluoromethyl)imidazo[1,2-a]pyridin-2-yl)ethan-1-ol], the midpoint of the response, the EC50, lay at 5.7 nM. This EC50 and that of the compound before are within 1.5-fold of each other.
In turn, `CC(C)(CO)NC(=O)c1cn2cccc(-c3ccccc3OCC(F)(F)F)c2n1` [Compound 1, N-(1-hydroxy-2-methylpropan-2-yl)-8-(2-(2,2,2-trifluoroethoxy)phenyl)imidazo[1,2-a]pyridine-2-carboxamide] displayed an EC50 of 9.8 nM.
`CC(C)(NC(=O)c1cn2cccc(-c3ccccc3OCC(F)(F)F)c2n1)C(F)(F)F` [Compound 3, N-(1,1,1-trifluoro-2-methylpropan-2-yl)-8-(2-(2,2,2-trifluoroethoxy)phenyl)imidazo[1,2-a]pyridine-2-carboxamide] yielded a half-maximal effective concentration (EC50) of 3.1 nM.
`C[C@@H](NC(=O)c1cn2cccc(-c3ccccc3OCC(F)(F)F)c2n1)C(F)(F)F` [Compound 4, (R)-8-(2-(2,2,2-trifluoroethoxy)phenyl)-N-(1,1,1-trifluoropropan-2-yl)imidazo[1,2-a]pyridine-2-carboxamide] displayed a concentration for a half-maximal effect (EC50) of 26 nM. Compared with the last compound, the EC50 is about 8.4-fold higher.
For the compound `O=C(N[C@H]1CCOC1)c1cn2cc(Cl)cc(-c3ccccc3OCC(F)(F)F)c2n1` [Compound 5, (S)-6-chloro-N-(tetrahydrofuran-3-yl)-8-(2-(2,2,2-trifluoroethoxy)phenyl)imidazo[1,2-a]pyridine-2-carboxamide], the response was half-maximal at 0.91 nM (EC50).
The result for `CC(C)(C#N)CNC(=O)c1cn2cc(Cl)cc(-c3ccccc3OCC(F)(F)F)c2n1` [Compound 8, 6-chloro-N-(2-cyano-2-methylpropyl)-8-(2-(2,2,2-trifluoroethoxy)phenyl)imidazo[1,2-a]pyridine-2-carboxamide] reads 4.5 nM; that for `COCC(C)(C)NC(=O)c1cn2cccc(-c3ccccc3OCC(F)(F)F)c2n1` [Compound 11, N-(1-methoxy-2-methylpropan-2-yl)-8-(2-(2,2,2-trifluoroethoxy)phenyl)imidazo[1,2-a]pyridine-2-carboxamide], 38 nM.
`O=C(c1cn2cccc(-c3ccccc3OCC(F)(F)F)c2n1)N1Cc2cccnc2C1` [Compound 12, (5,7-dihydro-6H-pyrrolo[3,4-b]pyridin-6-yl)(8-(2-(2,2,2-trifluoroethoxy)phenyl)imidazo[1,2-a]pyridin-2-yl)methanone] came in with a concentration giving a half-maximal response (EC50) of 36 nM.
The same measure for `CC(C)(C)NC(=O)c1cn2cc(F)cc(-c3ccccc3OCC(F)(F)F)c2n1` [Compound 13, N-(tert-butyl)-6-fluoro-8-(2-(2,2,2-trifluoroethoxy)phenyl)imidazo[1,2-a]pyridine-2-carboxamide]: 5.8 nM; for `O=C(Nc1cccnc1)c1cn2cc(C(F)(F)F)cc(-c3ccccc3OCC(F)(F)F)c2n1` [Compound 15, N-(pyridin-3-yl)-8-(2-(2,2,2-trifluoroethoxy)phenyl)-6-(trifluoromethyl)imidazo[1,2-a]pyridine-2-carboxamide]: 0.029 nM.
